“And” between values parts separate entries of the source, which are not always exact repeats. Identical values can stand only once. Like-named read-outs stand apart in the source and are kept apart here.
What was measured:
[1] = system: PAXF HUP-T3; assay: CellTiter-Blue 2D monolayer assay (Example 1), pancreas; format: cell-based, human; settings: for Test/Control (%): 72 h
Protocol: (§1) Compound 85 was assessed in 10 human tumor cell lines (see Table 3) for anti-cancer activity in vitro using a CellTiter-Blue® based 2D monolayer assay.
(§2) CellTiter-Blue® Cell Viability Assay: Tumor cells were grown at 37° C. in a humidified atmosphere with 5% CO2 in RPMI medium, supplemented with 10% (v/v) fetal calf serum and 50 μg/ml gentamicin (140 μl/well). Cultures were incubated at 37° C. and 5% CO2 in a humidified atmosphere. After 24 hours, 10 μl of Compound 85 was added, and left on the cells for another 72 hours (incubation period). Compound 85 was tested at 5 concentrations (0.003 μM, 0.03 μM, 0.3 μM, 3 μM, and 30 μM) and serially diluted in DMSO, mixed with cell culture medium, and added to the assay plates by using a Tecan Freedom EVO 200 robotic platform. The DMSO concentration was kept constant at 0.3% yip across the assay plate. Every 96 well plate included six DMSO-treated control wells and Compound 85-treated wells in duplicate at 5 concentrations. Viability of cells was quantified using the CellTiter-Blue® cell viability assay (Promega G8081). After incubation of cells, the CellTiter-Blue® reagent was brought to ambient temperature. Next, 20 μl of CellTiter-Blue® reagent were added to each well. After incubation tier up to 4 hours, fluorescence (FU) was measured using the EnSpire® multimode plate reader (Perkin Elmer) ([…]).
(§3) Data Evaluation: Sigmoidal concentration-response curves were fitted to the data points (test-versus-control; T/C values) obtained for each tumor model using 4 parameter non-linear curve fit (Charles River DRS Datawarehouse Software). Drug effects are expressed in terms of the percentage of the fluorescence signal, obtained by comparison of the mean signal in the treated wells with the mean signal of the untreated controls (T/C-value [%]) (Table 4). IC50 and IC70 values were reported as relative and absolute IC50 and IC70 values (Table 5). The absolute IC50 and IC70 values reflect the concentration of Compound 85 that achieves T/C=50% and T/C=30%, respectively. The relative IC50 value is the concentration of Compound 85 that gives a response half way between the top and bottom plateau of the sigmoidal concentration-response curve (inflection point of the curve).

[2] = system: OVXF 899; assay: CellTiter-Blue 2D monolayer assay (Example 1), ovarian; format: cell-based, human; settings: for Test/Control (%): 72 h
Protocol: as §1, §2, §3

[3] = system: OVXF A2780; assay: as above; format: cell-based, human; settings: for Test/Control (%): 72 h
Protocol: as §1, §2, §3

[4] = system: CXF HCC-2998; assay: CellTiter-Blue Cell Viability Assay (Example 2), colon; format: cell-based, human; settings: for T/C %: 72 h
Description: (§4) The CellTiter-Blue® Cell Viability Assay was used to assess the viability of cells from various cancer cell lines, in the presence or absence of Compound 85 (at different concentrations). This assay provides a homogeneous, fluorometric method for estimating the number of viable cells present in multi-well plates. Viable cells retain the ability to reduce resazurin to resorufin, which is highly fluorescent. […] The fluorescence produced is proportional to the number of viable cells. There is a linear relationship between cell number and fluorescence.
(§5) Cancer cells (see Table 6) were harvested from exponential phase cultures, counted and plated in 96 well flat-bottom microtiter plates, at a cell density 6,000-20,000 cells/well, depending on the cell line's growth rate. The culture medium was supplemented with 10% (v/v) foetal calf serum and 50 μg/mL gentamicin (140 μL/well). Cultures were incubated at 37° C. and 5% CO2 in a humidified atmosphere.
(§6) Compound 85 was serially diluted in DMSO, and five Compound 85 concentrations in half-log increments were used: 0.03 μM, 0.09 μM, 0.30 μM, 1.0 μM, and 3.0 μM. After 24 h, 10 μL of Compound 85 (dissolved in DMSO) or control (DMSO) medium were added, in duplicates, and left on the cells for another 72 h. Compound 85 solutions were added to the assay plates using a Tecan Freedom EVO 200 robotic platform. The DMSO concentration was kept constant at 0.3% v/v across the assay plate.
(§7) After incubation of up to 72 hours, fluorescence (FU) was measured using the EnSpire® multimode plate reader (Perkin Elmer) (excitation λ=570 nm, emission λ=600 nm).
(§8) Cancer cell lines used: Compound 85's anti-cancer effect was tested in 20 human cancer-cell lines representing nine cancer types (Table 6).
(§9) The percentage of viable cells in the presence of Compound 85 (Test condition, T), at different concentrations, are presented in Table 7 and expressed as a percentage of the number of viable cells in the presence of DMSO without Compound 85 (Control condition, C).
(§10) The relative IC50 is determined as the Compound 85 concentration giving a response halfway between the maximum cell viability signal (i.e., a 100% cell viability, no Compound 85 response) and the minimal viability signal (i.e. maximum cell viability inhibition achieved by Compound 85), in a sigmoidal concentration-effect curve.
(§11) The absolute IC50 is determined as the concentration that is associated with a T/C ratio of 50%.

[5] = system: CXF LS 174T; assay: as above; format: cell-based, human; settings: for T/C %: 72 h
Description: as §4, §5, §6, §7, §8, §9, §10, §11

[6] = system: 20 human cancer-cell lines representing nine cancer types; assay: CellTiter-Blue Cell Viability Assay (Example 2), whole panel; format: cell-based
Description: as §4, §5, §6, §7, §8, §9, §10, §11

[7] = geometric mean over human cancer cell lines of Table 8

CC(C)(O)Cn1nc(-c2ccccc2)c2c(Cl)c(-c3ccccc3)nnc21 [Compound 85]
Rel. IC70 [1]: 1505 nM
Test/Control (%) ([1]; 0.003 μM): 100%
Test/Control (%) ([1]; 0.03 μM): 101%
Test/Control (%) ([1]; 0.3 μM): 79%
Test/Control (%) ([1]; 3 μM): 16%
Test/Control (%) ([1]; 30 μM): 6%
Abs. IC70 ([1]; T/C=30%): 1518 nM
IC50 ([1]; T/C=50%, read-out: Abs. IC50): 794 nM
Bot. (%) ([1]; bottom plateau of curve): 0%
IC50 ([1]; read-out: Rel. IC50): 785 nM
Top (%) ([1]; top plateau of curve): 101%
Rel. IC70 [2]: 739 nM
Test/Control (%) ([2]; 0.003 μM): 108%
Test/Control (%) ([2]; 0.03 μM): 106%
Test/Control (%) ([2]; 0.3 μM): 86%
Test/Control (%) ([2]; 3 μM): 2%
Test/Control (%) ([2]; 30 μM): 1%
Abs. IC70 ([2]; T/C=30%): 775 nM
IC50 ([2]; T/C=50%, read-out: Abs. IC50): 553 nM
Bot. (%) ([2]; bottom plateau of curve): 1%
IC50 ([2]; read-out: Rel. IC50): 522 nM
Top (%) ([2]; top plateau of curve): 107%
Rel. IC70 [3]: 1872 nM
Test/Control (%) ([3]; 0.003 μM): 101%
Test/Control (%) ([3]; 0.03 μM): 94%
Test/Control (%) ([3]; 0.3 μM): 101%
Test/Control (%) ([3]; 3 μM): 1%
Test/Control (%) ([3]; 30 μM): 0%
Abs. IC70 ([3]; T/C=30%): 1868 nM
IC50 ([3]; T/C=50%, read-out: Abs. IC50): 1690 nM
Bot. (%) ([3]; bottom plateau of curve): 0%
IC50 ([3]; read-out: Rel. IC50): 1700 nM
Top (%) ([3]; top plateau of curve): 99%
Absolute IC70 [4]: 1125 nM
Relative IC70 [4]: 891 nM
T/C % ([4]; 0.03 μM): 98%
T/C % ([4]; 0.095 μM): 99%
T/C % ([4]; 0.3 μM): 98%
T/C % ([4]; 0.95 μM): 40%
T/C % ([4]; 3.0 μM): 22%
IC50 ([4]; read-out: Absolute IC50): 844 nM
IC50 ([4]; read-out: Relative IC50): 765 nM
Absolute IC70 [5]: 474 nM
Relative IC70 [5]: 467 nM
T/C % ([5]; 0.03 μM): 96%
T/C % ([5]; 0.095 μM): 96%
T/C % ([5]; 0.3 μM): 72%
T/C % ([5]; 0.95 μM): 5%
T/C % ([5]; 3.0 μM): 3%
IC50 ([5]; read-out: Absolute IC50): 383 nM
IC50 ([5]; read-out: Relative IC50): 384 nM
anti-cancer activity, concentration dependence ([6]; all of the 20 human cancer cell lines tested): concentration dependent anti-cancer activity
anti-cancer activity ([6]; at concentration of 0.95 μM, 20 human cancer-cell lines, nine cancer types): significant anti-cancer activity
geometric mean absolute IC70 [6, 7]: 712 nM
geometric mean relative IC70 [6, 7]: 675 nM
IC50 ([6]; geometric mean over human cancer cell lines of Table 8, read-out: geometric mean absolute IC50): 596 nM and 600 nM
IC50 ([6]; geometric mean over human cancer cell lines of Table 8, read-out: geometric mean relative IC50): 583 nM
